# In patent US8722608B2, “Process of bleaching” (Conopco, Inc., priority 2005, dated 2014):
# Columns and labels:
# [1] = Stability of aqueous catalyst salt solutions (UV/Vis of 1000× diluted solutions); assay type: physicochemical; details: 2 weeks; for precipitate formation: pH 2 to 5, 37° C.
# Experimental: Stability of aqueous solutions of chloride, sulphate and acetate salts are provided. Solutions of the bleach catalyst with chloride, sulphate and acetate anion were brought to pH 2, 3, 4 and 5 by hydrochloric acid, sulphuric acid and acetic acid respectively. For the acetate this could only give pH 5. For the lower pH values sulphuric acid was used in the case of acetate. The solutions were kept at 37° C. and after 2 weeks the stability was monitored from the absorptions in the UV/Vis spectra of 1000× diluted solutions.
# [2] = Bleaching of softwood D0 pulp with H2O2 and catalyst, whiteness; details: 2.5 microM catalyst, 10 kg/t H2O2, 8 kg/t NaOH, 50° C., 1 h, 5% consistency; SD 0.3 points
# Experimental: Softwood chemical mill pulp obtained after the D0 bleaching stage (abbreviated as softwood D0 pulp) was used. The bleaching experiments were conducted on small scale in 100 ml vessels using the pulps at 5% consistency (i.e., 5% oven dry wood pulp; 95% aqueous bleaching liquor). The mixture contained 2.5 microM of the catalyst (as chloride, sulfate, acetate and PF6 salts—see Table), 1 kg/t of MgSO4, 8 kg/t of NaOH and 10 kg/t of H2O2 (kg/t: kg chemicals per ton oven dry pulp). The mixture was manually stirred to ensure good distribution of the bleaching chemicals. Then the vessel was placed in a water bath and stirred regularly at 50° C. for 1 h. All experiments were carried out at least 6 times. As a reference the experiment was conducted without catalyst. The dosages and exact reaction conditions are given in the sections below. After the allocated bleaching times the pulp batches were removed from the vessels, filtered using a Buchner funnel, and washed with 100 ml of water. From the resultant samples of bleached pulp 4×4 cm discs were made having a flat surface on one side. The softwood D0 pulp samples were dried using a L&W Rapid Dryer (Lorentzen and Wetter) at 90° C. for 20 minutes. Whiteness of the bleached pulps was determined using L, a*, b* values as defined by CIE (Commission Internationale de l'Eclairage) of the dried pad was measured using a Minolta spectrophotometer.
# [3] = Solubility in water at 20° C.; assay type: physicochemical
"% (UV/Vis) remaining ([1]; pH 2, 37° C.)",precipitate formation [1],"% (UV/Vis) remaining ([1]; pH 3, 37° C.)","% (UV/Vis) remaining ([1]; pH 4, 37° C.)","% (UV/Vis) remaining ([1]; pH 5, 37° C.)",solubility in water [3],water solubility [3],SMILES,Whiteness [2]
100%,(Precipitate is formed at all pH's),100%,97%,94%,–,–,"CN1CCN(C)CCN(C)CC1.CN1CCN(C)CCN(C)CC1.[Cl-].[Cl-].[Mn+4].[Mn+4].[O-2].[O-2].[O-2] [[Mn2O3(Me3—TACN)2]•Cl2, [Mn2O3(Me3-TACN)2].(Cl)2]",84.3
87%,(No precipitate is formed),91%,93%,95%,more than 70 gram/Liter,–,"CC(=O)[O-].CC(=O)[O-].CN1CCN(C)CCN(C)CC1.CN1CCN(C)CCN(C)CC1.[Mn+4].[Mn+4].[O-2].[O-2].[O-2] [[Mn2O3(Me3—TACN)2]•(OAc)2, [Mn2O3(Me3-TACN)2].(OAc)2]",84.0
–,–,–,–,–,1.08 % (w/w),10.8 g per liter,"CN1CCN(C)CCN(C)CC1.CN1CCN(C)CCN(C)CC1.F[P-](F)(F)(F)(F)F.F[P-](F)(F)(F)(F)F.[Mn+4].[Mn+4].[O-2].[O-2].[O-2] [[Mn2O3(Me3—TACN)2]•(PF6)2, [Mn2O3(Me3-TACN)2].(PF6)2]",84.4
78%,(Precipitate only at pH = 5),96%,94%,98%,–,–,"CN1CCN(C)CCN(C)CC1.CN1CCN(C)CCN(C)CC1.O=S(=O)([O-])[O-].[Mn+4].[Mn+4].[O-2].[O-2].[O-2] [[Mn2O3(Me3—TACN)2]•SO4, [Mn2O3(Me3-TACN)2].SO4]",84.1
